We go through 15 compounds from patent US7495027B2, “3-aryl-4-hydroxyfuranone compounds and the human and animal health use thereof” (Wyeth, priority 2003, dated 2009).

Molecules are shown by their SMILES.

The test system of the first assay is C. elegans. The assay can be described thus: Efficacy against nematodes (C. elegans motility rating). More on the design: key: 0: no effect; 7: reduced movement in 24 h; 8: dead in 24 h; 9: dead in 4 h. The conditions noted are these: dose 150 ppm, observations at 4 h and 24 h postimmersion. Put shortly:
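Mixed-stage C. elegans (~50 per well, L1 to adult) in M9 buffer exposed to test compound at 100 ppm, 150 ppm or 200 μM final. Motility of larvae and adults scored under dissecting microscope at 4 h and 24 h.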
In the case of `O=C1O/C(=C\c2ccc3ccccc3c2)C(O)=C1c1cccc(C(F)(F)F)c1` [R=H; R1=3-CF3—C6H4; R2=2-naphthyl], the Rating worked out at 9.

Compound `O=C1O/C(=C\c2cccc(C(F)(F)F)c2)C(O)=C1c1cccc(C(F)(F)F)c1` [R=H; R1=3-CF3—C6H4; R2=3-CF3—C6H4] came in with a Rating of 9.

The compound `COc1ccc(/C=C2\OC(=O)C(c3cccc(C(F)(F)F)c3)=C2O)cc1` [R=H; R1=3-CF3—C6H4; R2=4-OCH3—C6H4] gave a Rating of 9.

For the compound `CC(=O)c1cccc(C2=C(O)C(=Cc3cccc4ccccc34)OC2=O)c1` [R=H; R1=3-COCH3—C6H4; R2=1-naphthyl], the Rating was 8.

Consider `O=C1OC(=Cc2ccc(-c3ccccc3)cc2)C(O)=C1c1cccc(Cl)c1` [R=H; R1=3-Cl—C6H4; R2=4-biphenyl], for which the Rating is 9.

As for `N#Cc1ccc(C2=C(O)C(=Cc3ccc(-c4ccc(C#N)cc4)cc3)OC2=O)cc1` [R=H; R1=4-CN—C6H4*; R2=4-(4′-CN-biphenyl)], the Rating came out at 9.

`N#Cc1ccc(C2=C(O)C(=Cc3ccccc3C(F)(F)F)OC2=O)cc1` [R=H; R1=4-CN—C6H4; R2=2-CF3—C6H4] gave a Rating of 7.

Consider `N#Cc1ccc(-c2ccc(/C=C3\OC(=O)C(c4ccc(Cl)cc4)=C3O)cc2)cc1` [R=H; R1=4-Cl—C6H4*; R2=4-(4′-CN-biphenyl)], for which the Rating turned out to be 9.

The compound `O=C1O/C(=C\c2cccc3ccccc23)C(O)=C1c1ccc(Cl)cc1` [R=H; R1=4-Cl—C6H4; R2=1-naphthyl] came in with a Rating of 9.

`O=C1OC(=Cc2ccc3ccccc3c2)C(O)=C1c1ccc(Cl)cc1` [R=H; R1=4-Cl—C6H4; R2=2-naphthyl] yielded a Rating of 9.

Take `COc1ccc(C=C2OC(=O)C(c3ccc(Cl)cc3)=C2O)cc1` [R=H; R1=4-Cl—C6H4; R2=4-OCH3—C6H4]: the Rating turned out to be 0.

Compound `COc1ccc(C2=C(O)C(=Cc3ccc(-c4ccccc4)cc3)OC2=O)cc1` [R=H; R1=4-OCH3—C6H4; R2=4-biphenyl] returned a Rating of 9.

`O=C1O/C(=C\c2ccccc2C(F)(F)F)C(O)=C1c1ccc(-c2ccccc2)cc1` [R=H; R1=4-biphenyl; R2=2-CF3—C6H4] gave a Rating of 9.

In the case of `O=C1OC(=Cc2ccc(C(F)(F)F)cc2)C(O)=C1c1ccc(-c2ccccc2)cc1` [R=H; R1=4-biphenyl; R2=4-CF3—C6H4], the Rating came out at 9.

Compound `O=C1O/C(=C\c2ccc(Cl)cc2)C(O)=C1c1ccc(-c2ccccc2)cc1` [R=H; R1=4-biphenyl; R2=4-Cl—C6H4] yielded a Rating of 9.

A further assay concerns Trichostrongylus columbriformis. As to the kind of experiment: In vivo efficacy against T. colubriformis in infected gerbils. The conditions noted are these: gerbils infected with T. colubriformis; single oral dose of 50 mg/kg by gavage; worm counts four days post-treatment; % mortality as compared to negative control. As for the experimental part: In Vivo Evaluation of the Efficacy of Test Compounds Against T. colubriformis
In this evaluation, gerbils are infected with Trichostrongylus columbriformis infective larvae at a concentration of approximately 800 L3/mL. Larvae for gerbil infections are cultured from feces from sheep previously infected with T. colubriformis. One week post infection, test compounds are administered by gavage as a single oral dose of 50 mg/kg of body weight. For each group of 3 gerbils, 10 mg of test compound are dissolved in 2 mL of PEG 400:DMSO (1:2 v/v) and each animal is administered the test solution at a rate of 0.1 mL/10 g of body weight. […] All animals are observed daily for morbidity and mortality. Four days post-treatment, all animals are weighed and necropsied. Worm counts are conducted with the use of stereoscopes and counters.
For `O=C1O/C(=C\c2ccc3ccccc3c2)C(O)=C1c1cccc(C(F)(F)F)c1` [R=H; R1=3-CF3—C6H4; R2=2-naphthyl], the Mortality was determined as 35.20%.

In turn, `O=C1O/C(=C\c2cccc(C(F)(F)F)c2)C(O)=C1c1cccc(C(F)(F)F)c1` [R=H; R1=3-CF3—C6H4; R2=3-CF3—C6H4] registered a Mortality of 10.10%.

Compound `COc1ccc(/C=C2\OC(=O)C(c3cccc(C(F)(F)F)c3)=C2O)cc1` [R=H; R1=3-CF3—C6H4; R2=4-OCH3—C6H4] displayed a Mortality of 3.10%.

On to `CC(=O)c1cccc(C2=C(O)C(=Cc3cccc4ccccc34)OC2=O)c1` [R=H; R1=3-COCH3—C6H4; R2=1-naphthyl], for which the Mortality stood at 10.70%.

`O=C1OC(=Cc2ccc(-c3ccccc3)cc2)C(O)=C1c1cccc(Cl)c1` [R=H; R1=3-Cl—C6H4; R2=4-biphenyl] came in with a Mortality of 19.40%.

In turn, `N#Cc1ccc(C2=C(O)C(=Cc3ccc(-c4ccc(C#N)cc4)cc3)OC2=O)cc1` [R=H; R1=4-CN—C6H4*; R2=4-(4′-CN-biphenyl)] returned a Mortality of 88.07%.

Compound `N#Cc1ccc(C2=C(O)C(=Cc3ccccc3C(F)(F)F)OC2=O)cc1` [R=H; R1=4-CN—C6H4; R2=2-CF3—C6H4] returned a Mortality of 69.78%.

With `O=C1O/C(=C\c2cccc3ccccc23)C(O)=C1c1ccc(Cl)cc1` [R=H; R1=4-Cl—C6H4; R2=1-naphthyl], the Mortality is listed as 0.00%.

The compound `O=C1OC(=Cc2ccc3ccccc3c2)C(O)=C1c1ccc(Cl)cc1` [R=H; R1=4-Cl—C6H4; R2=2-naphthyl] showed a Mortality of 52.80%.

Turning to `COc1ccc(C=C2OC(=O)C(c3ccc(Cl)cc3)=C2O)cc1` [R=H; R1=4-Cl—C6H4; R2=4-OCH3—C6H4], the Mortality stood at 7.10%.

For the compound `COc1ccc(C2=C(O)C(=Cc3ccc(-c4ccccc4)cc3)OC2=O)cc1` [R=H; R1=4-OCH3—C6H4; R2=4-biphenyl], the Mortality turned out to be 44.90%.

In the case of `O=C1O/C(=C\c2ccccc2C(F)(F)F)C(O)=C1c1ccc(-c2ccccc2)cc1` [R=H; R1=4-biphenyl; R2=2-CF3—C6H4], the Mortality worked out at 23.90%.

Regarding `O=C1OC(=Cc2ccc(C(F)(F)F)cc2)C(O)=C1c1ccc(-c2ccccc2)cc1` [R=H; R1=4-biphenyl; R2=4-CF3—C6H4], the Mortality worked out at 0.00%.

Regarding `O=C1O/C(=C\c2ccc(Cl)cc2)C(O)=C1c1ccc(-c2ccccc2)cc1` [R=H; R1=4-biphenyl; R2=4-Cl—C6H4], the Mortality amounted to 44.70%.

Staying with this assay, now noted: gerbils infected with T. colubriformis; single oral dose of 50 mg/kg by gavage; worm counts four days post-treatment; % mortality as compared to negative control; 50 mg/kg.
In the case of `N#Cc1ccc(-c2ccc(/C=C3\OC(=O)C(c4ccc(Cl)cc4)=C3O)cc2)cc1` [R=H; R1=4-Cl—C6H4*; R2=4-(4′-CN-biphenyl)], the Mortality stood at 23.80%.
